The values below are quoted from earlier work in US9328120B2, “6-cycloalkyl-pyrazolopyrimidinones for the treatment of CNS disorders” (Boehringer Ingelheim International GmbH, priority 2010, dated 2016).

The target in one data set is human PDE9A (Homo sapiens (Human), UniProt O76083). As to conditions: for inhibition on the isolated enzyme: concentrations of up to 100 micromolar (μM).
The target in a further data set is Murine PDE9A (Mus musculus (Mouse), UniProt O70628). As to conditions: concentrations below 200 micromolar.
Sequence of Murine PDE9A (O70628 whole entry): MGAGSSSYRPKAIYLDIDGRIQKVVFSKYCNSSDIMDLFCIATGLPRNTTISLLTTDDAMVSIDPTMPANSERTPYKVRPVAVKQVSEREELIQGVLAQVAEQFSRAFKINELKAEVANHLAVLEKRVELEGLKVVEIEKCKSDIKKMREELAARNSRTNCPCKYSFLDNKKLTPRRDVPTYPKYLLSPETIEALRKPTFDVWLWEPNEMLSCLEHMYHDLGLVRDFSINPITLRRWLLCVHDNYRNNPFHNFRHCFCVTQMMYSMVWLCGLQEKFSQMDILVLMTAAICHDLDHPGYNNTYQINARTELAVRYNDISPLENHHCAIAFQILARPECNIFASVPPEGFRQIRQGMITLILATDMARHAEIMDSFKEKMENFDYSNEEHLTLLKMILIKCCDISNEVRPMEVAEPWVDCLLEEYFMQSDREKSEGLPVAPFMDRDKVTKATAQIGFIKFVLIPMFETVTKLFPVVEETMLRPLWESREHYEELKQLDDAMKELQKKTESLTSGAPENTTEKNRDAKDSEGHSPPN

Sequence of human PDE9A (O76083 whole entry): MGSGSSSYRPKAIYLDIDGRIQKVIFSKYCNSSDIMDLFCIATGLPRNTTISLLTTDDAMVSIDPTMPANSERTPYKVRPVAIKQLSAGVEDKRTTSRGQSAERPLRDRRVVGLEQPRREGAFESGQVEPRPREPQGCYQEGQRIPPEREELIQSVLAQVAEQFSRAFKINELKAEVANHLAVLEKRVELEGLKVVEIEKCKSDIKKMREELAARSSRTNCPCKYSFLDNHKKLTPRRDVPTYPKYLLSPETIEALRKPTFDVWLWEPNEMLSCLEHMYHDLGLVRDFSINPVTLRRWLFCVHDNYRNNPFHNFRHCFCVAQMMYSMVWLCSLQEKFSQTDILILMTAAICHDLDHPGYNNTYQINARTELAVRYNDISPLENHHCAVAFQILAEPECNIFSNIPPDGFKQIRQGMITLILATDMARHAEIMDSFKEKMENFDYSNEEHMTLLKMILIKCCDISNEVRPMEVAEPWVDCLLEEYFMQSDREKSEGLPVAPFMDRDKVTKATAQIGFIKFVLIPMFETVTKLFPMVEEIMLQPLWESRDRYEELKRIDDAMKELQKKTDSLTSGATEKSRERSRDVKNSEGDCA

For `CCOC(=O)C1=C[C@]2(CC)CCCN3CCc4c(n1c1ccccc41)[C@@H]32` [vinpocetine], the “inhibition on the isolated enzyme” value on human PDE9A is recorded as “no inhibition”. Take `CCCOc1ccccc1-c1nc2nn[nH]c2c(=O)[nH]1` [zaprinast]: the IC50 (as a rule, the midpoint of a concentration-inhibition curve) on human PDE9A (isolated human PDE9A enzyme) is given as 35 micromolar (μM).

On to `COc1ccc(C2CNC(=O)C2)cc1OC1CCCC1` (stereo not shown) [rolipram], for which, on human PDE9A, the “inhibition on the isolated enzyme” value is given as “no inhibition”. As to `OCCN(CCO)c1nc(N2CCCCC2)c2nc(N(CCO)CCO)nc(N3CCCCC3)c2n1` [dipyridamole], the “inhibition on the isolated enzyme” value at human PDE9A is recorded as “no inhibition”. On to `CC(=O)Nc1ccc(-c2c[nH]c(=O)cn2)cc1` [SKF94120], for which, at human PDE9A, the “inhibition on the isolated enzyme” value is “no inhibition”. Consider `CC(C)Cn1c(=O)n(C)c(=O)c2[nH]cnc21` [IBMX], for which the “inhibition of murine PDE9A” value on Murine PDE9A is listed as “not inhibited”. Further, the “inhibition on the isolated enzyme” value on human PDE9A is recorded as “no inhibition”.
